Source: US10047104B2, “Bicyclic heterocyclyl derivatives as IRAK4 inhibitors” (Aurigene Discovery Technologies Limited, priority 2014, dated 2018)
Counter-ions that a name gives are not always drawn.

Molecular target: T1, recombinant IRAK-4 kinase (Homo sapiens, UniProt Q9NWZ3)
T1 construct: purchased Millipore, USA
T1 sequence (Q9NWZ3 1-460): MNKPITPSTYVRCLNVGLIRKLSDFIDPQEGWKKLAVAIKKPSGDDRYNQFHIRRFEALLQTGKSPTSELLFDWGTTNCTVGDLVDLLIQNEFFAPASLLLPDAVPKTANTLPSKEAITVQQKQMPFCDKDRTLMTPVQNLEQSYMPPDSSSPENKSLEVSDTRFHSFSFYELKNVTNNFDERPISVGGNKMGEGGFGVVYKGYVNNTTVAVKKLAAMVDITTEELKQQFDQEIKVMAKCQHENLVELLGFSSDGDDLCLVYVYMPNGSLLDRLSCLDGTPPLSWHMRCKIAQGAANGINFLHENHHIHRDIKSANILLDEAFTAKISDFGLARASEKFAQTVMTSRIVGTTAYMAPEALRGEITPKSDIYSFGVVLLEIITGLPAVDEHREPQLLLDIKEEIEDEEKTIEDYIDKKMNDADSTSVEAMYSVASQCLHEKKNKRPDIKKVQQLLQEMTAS
Assay: IRAK-4 Biochemical Assay (TR-FRET)
Conditions: 5 ng IRAK-4 kinase, 100 nM Biotin Histone H3, 20 μM ATP, 30 minutes pre-incubation, read-out: IC50 values for IRAK4 activity
Method: Compounds were tested for their potential to inhibit IRAK-4 enzyme in a TR-FRET assay using recombinant IRAK-4 kinase from Millipore, USA. The assay buffer was 50 mM Tris-HCl pH 7.5, 20 mM MgCl2, 1 mM EGTA, 2 mM DTT, 3 mM MnCl2 and 0.01% Tween20. 5 ng of IRAK-4 kinase was used for the assay. After pre-incubation of enzyme with test compound for 30 minutes at room temperature, a substrate mix containing 100 nM Biotin Histone H3 (Millipore, USA) and 20 μM ATP (Sigma, USA) was added and the reaction was incubated for 30 minutes. Post incubation, the reaction was stopped by the addition of stop mix containing 40 mM EDTA, 1 nM of Europium-Anti-Phospho-Histone H3 (Ser10) antibody (Perkin Elmer, USA) and 20 nM Sure Light Allophycocyanin-Streptavidin (Perkin Elmer, USA).

Row | SMILES | IC50 [nM]
1 | O=C(Nc1cc2oc(N3CCCCC3)nc2nc1N1CCCCC1)c1cccc(-c2cn[nH]c2)n1 [Example 4, N-(2,5-di(piperidin-1-yl)oxazolo[4,5-b]pyridin-6-yl)-6-(1H-pyrazol-4-yl)picolinamide hydrochloride] | 50 to 100
2 | Cc1cc(-c2nc(C(=O)Nc3cc4sc(N5CCOCC5)nc4nc3N3CCC3)co2)ccn1 [Example 93, N-(5-(azetidin-1-yl)-2-morpholinothiazolo[4,5-b]pyridin-6-yl)-2-(2-methylpyridin-4-yl)oxazole-4-carboxamide] | < 50
3 | Cc1cc(-c2nc(C(=O)Nc3cc4oc(N5CCCCC5)nc4nc3N3CCC3)co2)ccn1 [Example 109, N-(5-(azetidin-1-yl)-2-(piperidin-1-yl)oxazolo[4,5-b]pyridin-6-yl)-2-(2-methylpyridin-4-yl)oxazole-4-carboxamide] | > 100
4 | Nc1ccc(-c2cccc(C(=O)Nc3ccc4nc(N5CCOCC5)sc4n3)n2)cn1 [Example 14, 6′-amino-N-(2-morpholinothiazolo[5,4-b]pyridin-5-yl)-[2,3′-bipyridine]-6-carboxamide] | < 50
5 | Cc1cc(-c2ccc(C(=O)Nc3cc4sc(N5CCOCC5)nc4nc3N3CCC[C@@H](O)C3)o2)ccn1 [Example 95, (R)—N-(5-(3-hydroxypiperidin-1-yl)-2-morpholinothiazolo[4,5-b]pyridin-6-yl)-5-(2-methylpyridin-4-yl)furan-2-carboxamide] | < 50
6 | Cc1cc(-c2nc(C(=O)Nc3cc4sc(N5CCOCC5)nc4nc3N3CC[C@H](O)C3)co2)ccn1 [Example 71, (S)—N-(5-(3-hydroxypyrrolidin-1-yl)-2-morpholinothiazolo[4,5-b]pyridin-6-yl)-2-(2-methylpyridin-4-yl)oxazole-4-carboxamide] | < 50
7 | Nc1cc(-c2nc(C(=O)Nc3cc4sc(N5CCOCC5)nc4nc3N3CCC(O)CC3)co2)ccn1 [Example 130, 2-(2-aminopyridin-4-yl)-N-(5-(4-hydroxypiperidin-1-yl)-2-morpholinothiazolo[4,5-b]pyridin-6-yl)oxazole-4-carboxamide hydrochloride] | < 50
8 | Cc1cc(-c2nc(C(=O)Nc3cc4oc(N5CCOCC5)nc4nc3N3CCOCC3)co2)ccn1 [Example 24, N-(2,5-dimorpholinooxazolo[4,5-b]pyridin-6-yl)-2-(2-methylpyridin-4-yl)oxazole-4-carboxamide] | < 50
9 | Cc1cc(-c2nc(C(=O)Nc3cc4sc(N5CCOCC5)nc4nc3C3CC3)co2)ccn1 [Example 69, N-(5-cyclopropyl-2-morpholinothiazolo[4,5-b]pyridin-6-yl)-2-(2-methylpyridin-4-yl)oxazole-4-carboxamide] | < 50
10 | Cc1cc(-c2nc(C(=O)Nc3cc4sc(N5CCOCC5)nc4nc3N3CC[C@@H](O)C3)co2)ccn1 [Example 85, (R)—N-(5-(3-hydroxypyrrolidin-1-yl)-2-morpholinothiazolo[4,5-b]pyridin-6-yl)-2-(2-methylpyridin-4-yl)oxazole-4-carboxamide] | < 50
11 | C[C@H](O)Cn1cc(-c2cccc(C(=O)Nc3cc4sc(N5CCOCC5)nc4nc3N3CCCCC3)n2)cn1 [Example 96, (S)-6-(1-(2-hydroxypropyl)-1H-pyrazol-4-yl)-N-(2-morpholino-5-(piperidin-1-yl)thiazolo[4,5-b]pyridin-6-yl)picolinamide] | < 50
12 | Cc1cc(-c2nc(C(=O)Nc3cc4oc(N5CCCCC5)nc4nc3N3CCCC3)co2)ccn1 [Example 111, 2-(2-methylpyridin-4-yl)-N-(2-(piperidin-1-yl)-5-(pyrrolidin-1-yl)oxazolo[4,5-b]pyridin-6-yl)oxazole-4-carboxamide] | < 50
13 | Cc1cnccc1-c1nc(C(=O)Nc2cc3oc(N4CCCCC4)nc3nc2N2CCCCC2)co1 [Example 34, N-(2,5-di(piperidin-1-yl)oxazolo[4,5-b]pyridin-6-yl)-2-(3-methylpyridin-4-yl)oxazole-4-carboxamide] | < 50
14 | O=C(Nc1cc2sc(N3CCOCC3)nc2nc1N1CCCCC1)c1coc(N2CC[C@H](O)C2)n1 [Example 70, (S)-2-(3-hydroxypyrrolidin-1-yl)-N-(2-morpholino-5-(piperidin-1-yl)thiazolo[4,5-b]pyridin-6-yl)oxazole-4-carboxamide] | < 50
15 | Cc1cc(-c2nc(C(=O)Nc3cc4sc(N5CCCCC5)nc4nc3N3CCCCC3)co2)ccn1 [Example 23, N-(2,5-di(piperidin-1-yl)thiazolo[4,5-b]pyridin-6-yl)-2-(2-methylpyridin-4-yl)oxazole-4-carboxamide] | < 50
16 | O=C(Nc1cc2sc(N3CCOCC3)nc2nc1C1CC1)c1coc(N2CC[C@H](O)C2)n1 [Example 73, (S)—N-(5-cyclopropyl-2-morpholinothiazolo[4,5-b]pyridin-6-yl)-2-(3-hydroxypyrrolidin-1-yl)oxazole-4-carboxamide] | < 50
17 | Cc1cc(-c2nc(C(=O)Nc3cc4sc(N5CCCC(O)C5)nc4nc3N3CCC(O)CC3)co2)ccn1 (centres unmarked) [Example 126, N-(2-(3-hydroxypiperidin-1-yl)-5-(4-hydroxypiperidin-1-yl)thiazolo[4,5-b]pyridin-6-yl)-2-(2-methylpyridin-4-yl)oxazole-4-carboxamide] | < 50
18 | Cc1cc(-c2nc(C(=O)Nc3cc4sc(N5CCOCC5)nc4nc3N3CC[C@H](N)C3)co2)ccn1 [Example 67, (S)—N-(5-(3-aminopyrrolidin-1-yl)-2-morpholinothiazolo[4,5-b]pyridin-6-yl)-2-(2-methylpyridin-4-yl)oxazole-4-carboxamide] | < 50
19 | O=C(Nc1cc2oc(N3CCOCC3)nc2nc1N1CCCCC1)c1cccc(Cl)n1 [Example 8, 6-chloro-N-(2-morpholino-5-(piperidin-1-yl)oxazolo[4,5-b]pyridin-6-yl)picolinamide] | < 50
20 | Nc1cc(-c2nc(C(=O)Nc3cc4sc(N5CCOCC5)nc4nc3N3CCCC(O)C3)co2)ccn1 (centres unmarked) [Example 128, 2-(2-aminopyridin-4-yl)-N-(5-(3-hydroxypiperidin-1-yl)-2-morpholinothiazolo[4,5-b]pyridin-6-yl)oxazole-4-carboxamide hydrochloride] | < 50
21 | Cc1cc(-c2nc(C(=O)Nc3cc4sc(N5CCCCC5)nc4nc3N3CCC3)co2)ccn1 [Example 87, N-(5-(azetidin-1-yl)-2-(piperidin-1-yl)thiazolo[4,5-b]pyridin-6-yl)-2-(2-methylpyridin-4-yl)oxazole-4-carboxamide] | < 50
22 | N[C@H]1CCN(c2nc(C(=O)Nc3cc4oc(N5CCOCC5)nc4nc3N3CCCCC3)co2)C1 [Example 42, (S)-2-(3-aminopyrrolidin-1-yl)-N-(2-morpholino-5-(piperidin-1-yl)oxazolo[4,5-b]pyridin-6-yl)oxazole-4-carboxamide] | 50 to 100
23 | Cc1cc(-c2nc(C(=O)Nc3cc4sc(N5CCOCC5)nc4nc3-c3cn[nH]c3)co2)ccn1 [Example 121, 2-(2-methylpyridin-4-yl)-N-(2-morpholino-5-(1H-pyrazol-4-yl)thiazolo[4,5-b]pyridin-6-yl)oxazole-4-carboxamide] | < 50
24 | COc1cc(-c2nc(C(=O)Nc3cc4sc(N5CCCCC5)nc4nc3N3CCCCC3)co2)ccn1 [Example 56, N-(2,5-di(piperidin-1-yl)thiazolo[4,5-b]pyridin-6-yl)-2-(2-methoxypyridin-4-yl)oxazole-4-carboxamide] | < 50
25 | Cc1cc(-c2ccc(C(=O)Nc3cc4oc(N5CCOCC5)nc4nc3N3CC[C@H](O)C3)s2)ccn1 [Example 108, (S)—N-(5-(3-hydroxypyrrolidin-1-yl)-2-morpholinooxazolo[4,5-b]pyridin-6-yl)-5-(2-methylpyridin-4-yl)thiophene-2-carboxamide] | > 100
26 | Cc1cc(-c2ccc(C(=O)Nc3cc4sc(N5CCOCC5)nc4nc3N3CCC(F)CC3)o2)ccn1 [Example 97, N-(5-(4-fluoropiperidin-1-yl)-2-morpholinothiazolo[4,5-b]pyridin-6-yl)-5-(2-methylpyridin-4-yl)furan-2-carboxamide] | < 50
27 | Cc1ncccc1-c1nc(C(=O)Nc2cc3oc(N4CCCCC4)nc3nc2N2CCCCC2)co1 [Example 27, N-(2,5-di(piperidin-1-yl)oxazolo[4,5-b]pyridin-6-yl)-2-(2-methylpyridin-3-yl)oxazole-4-carboxamide] | < 50
28 | Cc1cc(-c2nc(C(=O)Nc3cc4sc(N5CCOCC5)nc4nc3-c3cccc(F)c3)co2)ccn1 [Example 100, N-(5-(3-fluorophenyl)-2-morpholinothiazolo[4,5-b]pyridin-6-yl)-2-(2-methylpyridin-4-yl)oxazole-4-carboxamide] | < 50
29 | N[C@H]1CCN(c2nc(C(=O)Nc3cc4oc(N5CCOCC5)nc4nc3C3CC3)co2)C1 [Example 47, (S)-2-(3-aminopyrrolidin-1-yl)-N-(5-cyclopropyl-2-morpholinooxazolo[4,5-b]pyridin-6-yl)oxazole-4-carboxamide] | < 50
